In PMC12595434, “Development of retinoid nuclear receptor pathway antagonists through targeting aldehyde dehydrogenase 1A3” (iScience, 2025):
Where “and” joins values, the source holds several entries; their conditions need not be identical. Equal entries are not always repeated.

How the values were obtained:
hNav1.5 = hNav1.5 (Homo sapiens, UniProt Q14524); experiment: Off-target profiling panel; type: cell-based; conditions: read-out: Inhibition by MBE1 at 10 μM (%)
M2 = M2 (Homo sapiens, UniProt P08172); experiment: Off-target profiling panel; type: binding; conditions: read-out: Inhibition by MBE1 at 10 μM (%)
V1A = V1A (Homo sapiens, UniProt P37288); experiment: Off-target profiling panel; type: binding; conditions: read-out: Inhibition by MBE1 at 10 μM (%)
M3 = M3 (Homo sapiens, UniProt P20309); experiment: Off-target profiling panel; type: binding; conditions: read-out: Inhibition by MBE1 at 10 μM (%)
DAT = DAT (Homo sapiens, UniProt Q01959); experiment: Off-target profiling panel; type: binding; conditions: read-out: Inhibition by MBE1 at 10 μM (%)
FAM204A = target: T1, FAM204A (Homo sapiens, UniProt Q9H8W3); experiment: Thermal proteome profiling (TPP) in A375 cells; type: cell-based
T1 construct: Treated A375 cells were harvested from 10 × 15 cm plates; endogenous in cells; host or cells: A375 melanoma cells

Eta agonist = Eta agonist (Homo sapiens, UniProt P25101); experiment: Off-target profiling panel; type: cell-based; conditions: read-out: Inhibition by MBE1 at 10 μM (%)
LCK = LCK (Homo sapiens, UniProt P06239); experiment: Off-target profiling panel; type: biochemical; conditions: read-out: Inhibition by MBE1 at 10 μM (%)
COX1 = COX1 (Homo sapiens, UniProt P23219); experiment: Off-target profiling panel; type: biochemical; conditions: read-out: Inhibition by MBE1 at 10 μM (%)
GR = GR (Homo sapiens, UniProt P04150); experiment: Off-target profiling panel; type: binding; conditions: read-out: Inhibition by MBE1 at 10 μM (%)
MARCKSL1 = target: T2, MARCKSL1 (Homo sapiens, UniProt P49006); experiment: Thermal proteome profiling (TPP) in A375 cells; type: cell-based; conditions: MARCKSL1, 1 uM
T2 construct: Treated A375 cells were harvested from 10 × 15 cm plates; endogenous in cells; host or cells: A375 melanoma cells

ADORA2A = ADORA2A (Homo sapiens, UniProt P29274); experiment: Off-target profiling panel; type: binding; conditions: read-out: Inhibition by MBE1 at 10 μM (%)
AsPC-1 cells = experiment: Metabolomic profiling of treated cell lines (raw metabolite counts); type: cell-based; conditions: AsPC-1:MBE, replicates
Description: Supplement mmc8.xlsx, sheet "Supplement Table 7" | column: AsPC-1:MBE

Alpha1A = Alpha1A (Homo sapiens, UniProt P35348); experiment: Off-target profiling panel; type: binding; conditions: read-out: Inhibition by MBE1 at 10 μM (%)
GABAA = experiment: Off-target profiling panel

T1 sequence (Q9H8W3 whole entry): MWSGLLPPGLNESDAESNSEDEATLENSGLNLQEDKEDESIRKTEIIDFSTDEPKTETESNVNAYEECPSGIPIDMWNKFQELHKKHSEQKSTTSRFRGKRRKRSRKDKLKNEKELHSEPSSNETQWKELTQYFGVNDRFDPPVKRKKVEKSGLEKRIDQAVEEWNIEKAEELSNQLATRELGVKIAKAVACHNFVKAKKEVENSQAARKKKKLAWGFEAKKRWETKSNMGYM
Sequence of M2 (P08172 whole entry): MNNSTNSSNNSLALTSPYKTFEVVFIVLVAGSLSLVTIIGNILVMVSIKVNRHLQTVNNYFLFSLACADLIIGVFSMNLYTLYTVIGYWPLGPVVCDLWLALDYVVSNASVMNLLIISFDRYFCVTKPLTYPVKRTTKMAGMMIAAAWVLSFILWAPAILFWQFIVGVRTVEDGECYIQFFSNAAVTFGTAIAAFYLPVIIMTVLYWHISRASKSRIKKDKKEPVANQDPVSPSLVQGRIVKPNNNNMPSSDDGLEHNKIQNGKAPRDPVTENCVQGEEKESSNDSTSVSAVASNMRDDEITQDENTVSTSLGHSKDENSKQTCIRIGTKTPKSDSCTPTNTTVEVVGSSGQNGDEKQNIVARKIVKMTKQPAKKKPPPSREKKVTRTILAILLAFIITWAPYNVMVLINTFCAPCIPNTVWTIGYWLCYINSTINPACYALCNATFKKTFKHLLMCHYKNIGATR
Sequence of DAT (Q01959 whole entry): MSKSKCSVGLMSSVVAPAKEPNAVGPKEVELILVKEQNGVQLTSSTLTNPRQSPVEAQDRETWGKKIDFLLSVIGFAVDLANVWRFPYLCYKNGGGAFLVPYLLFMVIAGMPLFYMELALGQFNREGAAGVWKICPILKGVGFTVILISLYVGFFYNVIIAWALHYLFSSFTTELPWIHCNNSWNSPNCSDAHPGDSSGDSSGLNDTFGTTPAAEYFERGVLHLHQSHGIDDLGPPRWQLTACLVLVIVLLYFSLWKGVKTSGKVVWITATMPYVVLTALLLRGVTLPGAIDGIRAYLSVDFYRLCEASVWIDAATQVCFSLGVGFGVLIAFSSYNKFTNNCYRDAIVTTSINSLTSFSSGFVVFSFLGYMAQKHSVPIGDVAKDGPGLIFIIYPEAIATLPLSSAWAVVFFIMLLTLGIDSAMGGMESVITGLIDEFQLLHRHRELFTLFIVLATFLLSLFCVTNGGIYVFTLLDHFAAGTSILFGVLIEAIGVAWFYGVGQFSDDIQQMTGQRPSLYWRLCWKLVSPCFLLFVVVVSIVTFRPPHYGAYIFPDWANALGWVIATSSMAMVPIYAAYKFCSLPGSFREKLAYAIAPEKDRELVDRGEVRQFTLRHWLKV
Sequence of Alpha1A (P35348 whole entry): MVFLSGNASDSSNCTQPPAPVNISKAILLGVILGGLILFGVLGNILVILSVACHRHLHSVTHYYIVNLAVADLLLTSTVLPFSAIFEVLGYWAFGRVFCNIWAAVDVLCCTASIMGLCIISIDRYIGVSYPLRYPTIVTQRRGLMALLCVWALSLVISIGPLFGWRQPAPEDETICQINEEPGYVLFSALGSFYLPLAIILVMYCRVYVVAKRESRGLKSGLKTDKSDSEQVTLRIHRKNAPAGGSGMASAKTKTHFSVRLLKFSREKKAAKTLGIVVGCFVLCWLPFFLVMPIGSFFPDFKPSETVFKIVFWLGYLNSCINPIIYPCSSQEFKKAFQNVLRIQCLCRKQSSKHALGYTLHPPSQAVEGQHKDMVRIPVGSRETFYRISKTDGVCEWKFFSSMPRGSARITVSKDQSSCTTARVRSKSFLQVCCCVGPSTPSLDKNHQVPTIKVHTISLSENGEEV
Sequence of Eta agonist (P25101 21-427): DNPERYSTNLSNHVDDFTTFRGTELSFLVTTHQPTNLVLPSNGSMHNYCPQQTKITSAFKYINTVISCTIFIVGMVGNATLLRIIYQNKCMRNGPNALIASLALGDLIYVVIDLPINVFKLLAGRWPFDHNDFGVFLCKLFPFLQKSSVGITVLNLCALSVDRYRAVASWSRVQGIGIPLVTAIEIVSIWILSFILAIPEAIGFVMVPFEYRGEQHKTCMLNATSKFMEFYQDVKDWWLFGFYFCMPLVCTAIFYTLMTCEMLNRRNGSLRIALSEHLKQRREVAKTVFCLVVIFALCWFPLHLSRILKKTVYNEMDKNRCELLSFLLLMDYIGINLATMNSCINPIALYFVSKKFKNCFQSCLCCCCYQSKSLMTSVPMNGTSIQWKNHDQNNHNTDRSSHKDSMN
Sequence of V1A (P37288 whole entry): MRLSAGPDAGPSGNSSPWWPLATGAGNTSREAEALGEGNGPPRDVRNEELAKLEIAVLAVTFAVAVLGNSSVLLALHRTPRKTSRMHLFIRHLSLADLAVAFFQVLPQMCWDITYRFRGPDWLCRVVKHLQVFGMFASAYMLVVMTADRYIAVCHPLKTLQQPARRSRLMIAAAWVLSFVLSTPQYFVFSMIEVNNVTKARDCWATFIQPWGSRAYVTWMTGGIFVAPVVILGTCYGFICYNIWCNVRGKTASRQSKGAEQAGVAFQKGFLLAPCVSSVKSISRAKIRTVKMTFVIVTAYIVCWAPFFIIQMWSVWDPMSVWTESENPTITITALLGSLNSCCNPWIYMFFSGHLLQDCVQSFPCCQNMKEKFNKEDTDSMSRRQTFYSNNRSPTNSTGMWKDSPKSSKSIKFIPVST
Sequence of GR (P04150 whole entry): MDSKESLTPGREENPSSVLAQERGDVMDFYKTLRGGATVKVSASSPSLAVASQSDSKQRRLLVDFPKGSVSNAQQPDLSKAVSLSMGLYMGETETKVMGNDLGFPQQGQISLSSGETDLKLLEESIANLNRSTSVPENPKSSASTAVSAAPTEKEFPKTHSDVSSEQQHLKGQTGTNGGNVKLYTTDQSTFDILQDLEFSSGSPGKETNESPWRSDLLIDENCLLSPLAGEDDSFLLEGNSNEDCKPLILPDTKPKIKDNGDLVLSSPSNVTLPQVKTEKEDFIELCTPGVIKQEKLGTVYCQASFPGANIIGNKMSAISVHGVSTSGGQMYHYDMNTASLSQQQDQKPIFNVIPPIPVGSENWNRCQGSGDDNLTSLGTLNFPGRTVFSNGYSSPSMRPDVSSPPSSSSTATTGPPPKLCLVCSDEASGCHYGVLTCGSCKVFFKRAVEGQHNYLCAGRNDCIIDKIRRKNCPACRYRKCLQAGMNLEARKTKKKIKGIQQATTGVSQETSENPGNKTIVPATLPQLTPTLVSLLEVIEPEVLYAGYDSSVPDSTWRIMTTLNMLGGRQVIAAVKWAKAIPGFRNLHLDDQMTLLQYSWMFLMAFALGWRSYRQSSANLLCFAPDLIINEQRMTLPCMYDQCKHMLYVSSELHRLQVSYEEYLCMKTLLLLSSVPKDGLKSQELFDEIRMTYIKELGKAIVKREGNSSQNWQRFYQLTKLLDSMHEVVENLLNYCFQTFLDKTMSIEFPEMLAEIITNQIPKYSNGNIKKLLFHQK
Sequence of ADORA2A (P29274 whole entry): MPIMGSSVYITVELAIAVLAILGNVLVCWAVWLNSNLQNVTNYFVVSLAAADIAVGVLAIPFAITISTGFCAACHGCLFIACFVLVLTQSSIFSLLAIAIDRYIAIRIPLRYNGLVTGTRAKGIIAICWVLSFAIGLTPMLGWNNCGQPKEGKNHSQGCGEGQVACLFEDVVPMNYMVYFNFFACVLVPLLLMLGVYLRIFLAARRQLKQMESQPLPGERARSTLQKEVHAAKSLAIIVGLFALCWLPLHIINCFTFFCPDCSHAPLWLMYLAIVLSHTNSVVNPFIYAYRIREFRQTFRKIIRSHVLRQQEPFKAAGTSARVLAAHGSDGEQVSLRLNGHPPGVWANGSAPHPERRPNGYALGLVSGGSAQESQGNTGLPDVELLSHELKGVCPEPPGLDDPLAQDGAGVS
Sequence of M3 (P20309 whole entry): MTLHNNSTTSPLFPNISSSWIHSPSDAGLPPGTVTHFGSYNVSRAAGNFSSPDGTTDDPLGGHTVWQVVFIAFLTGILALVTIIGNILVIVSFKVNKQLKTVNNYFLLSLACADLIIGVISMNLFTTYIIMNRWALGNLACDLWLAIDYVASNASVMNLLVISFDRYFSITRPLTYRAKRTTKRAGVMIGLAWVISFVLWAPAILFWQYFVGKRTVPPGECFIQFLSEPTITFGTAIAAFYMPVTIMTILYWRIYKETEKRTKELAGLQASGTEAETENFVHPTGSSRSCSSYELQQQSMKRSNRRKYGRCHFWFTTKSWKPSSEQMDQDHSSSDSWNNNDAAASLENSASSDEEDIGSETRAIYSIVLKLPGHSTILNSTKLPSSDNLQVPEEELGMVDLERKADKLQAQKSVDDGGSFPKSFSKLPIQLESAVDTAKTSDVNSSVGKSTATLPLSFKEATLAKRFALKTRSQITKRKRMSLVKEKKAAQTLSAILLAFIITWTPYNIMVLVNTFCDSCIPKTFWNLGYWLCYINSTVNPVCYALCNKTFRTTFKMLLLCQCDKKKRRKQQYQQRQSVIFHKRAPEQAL
T2 sequence (P49006 whole entry): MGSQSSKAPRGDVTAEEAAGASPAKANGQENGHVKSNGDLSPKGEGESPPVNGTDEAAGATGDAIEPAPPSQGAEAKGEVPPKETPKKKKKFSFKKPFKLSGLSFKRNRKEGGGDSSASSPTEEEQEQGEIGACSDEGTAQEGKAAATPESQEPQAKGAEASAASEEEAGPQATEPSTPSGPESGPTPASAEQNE

CCc1cnccc1C(=O)Nc1cc2c(cc1F)NC(=O)CC2 [MBE1, 3-ethyl-N-(7-fluoro-2-oxo-3,4-dihydro-1H-quinolin-6-yl)pyridine-4-carboxamide]
inhibition at 10 µM (hNav1.5): -0.59%
inhibition at 10 µM (M2): -6.51%
inhibition at 10 µM (V1A): 5.88%
inhibition at 10 µM (M3): -13.4%
inhibition at 10 µM (DAT): -13.1%
100nM MBE1 Tm (FAM204A): 63.4426
DMSO-100nM MBE1 TM (FAM204A): -8.6993
inhibition at 10 µM (Eta agonist): -0.16%
inhibition at 10 µM (LCK): -2.81%
inhibition at 10 µM (COX1): -2.65%
inhibition at 10 µM (GR): -13.5%
1uM MBE1 Tm (MARCKSL1): 64
inhibition at 10 µM (ADORA2A): -15.7%
Raw counts of 2-Hydroxybutyric acid (AsPC-1 cells): 407527 and 409338 and 391016
Raw counts of 3-Hydroxybutyric acid (AsPC-1 cells): 935326 and 777510 and 811161
Raw counts of 3-Phosphoglycerate (AsPC-1 cells): 27569.7 and 29653.8 and 33692.4
Raw counts of 3-Phosphoserine (AsPC-1 cells): 0
Raw counts of 6-Phosphogluconate (AsPC-1 cells): 2283.86 and 2700.65 and 2716.13
Raw counts of Carbamoyl phosphate (AsPC-1 cells): 77497 and 91797.1 and 80487.7
Raw counts of Citrulline (AsPC-1 cells): 767940 and 822514 and 761078
Raw counts of Cytidine (AsPC-1 cells): 42547.3 and 33951.9 and 31568.3
Raw counts of Hypoxanthine (AsPC-1 cells): 6602890 and 6349420 and 6667202
Raw counts of Isoleucine (AsPC-1 cells): 8463643 and 7729570 and 8029520
Raw counts of Lactate (AsPC-1 cells): 2.84E+08 and 2.40E+08 and 2.49E+08
Raw counts of Leucine (AsPC-1 cells): 1.56E+07 and 1.48E+07 and 1.55E+07
Raw counts of Methionine (AsPC-1 cells): 3519797 and 3454298 and 3337800
Raw counts of N-acetyl-glutamine (AsPC-1 cells): 14303 and 11323.4 and 0
Raw counts of Orotate (AsPC-1 cells): 62546.3 and 65785 and 58119.5
Raw counts of Phenylalanine (AsPC-1 cells): 9403483 and 9101309 and 9197218
Raw counts of Phosphoenolpyruvate (AsPC-1 cells): 23786.2 and 24455.1 and 27616
Raw counts of Pyridoxine (AsPC-1 cells): 1078977 and 951150 and 1075404
Raw counts of Pyruvate (AsPC-1 cells): 3.56E+07 and 3.45E+07 and 3.67E+07
Raw counts of Ribitol (AsPC-1 cells): 1829543 and 1600997 and 2014101
Raw counts of Sorbitol (AsPC-1 cells): 2.37E+07 and 2.26E+07 and 2.62E+07
Raw counts of Taurine (AsPC-1 cells): 5285632 and 4263876 and 4897168
Raw counts of Tryptophan (AsPC-1 cells): 2709598 and 2662217 and 2730749
Raw counts of Tyrosine (AsPC-1 cells): 5411932 and 5220208 and 5418708
Raw counts of UDP (AsPC-1 cells): 31905 and 38800.3 and 38337.9
Raw counts of Uracil (AsPC-1 cells): 1743558 and 1602379 and 1692033
Raw counts of Uridine (AsPC-1 cells): 1071683 and 996648 and 1101788
Raw counts of Valine (AsPC-1 cells): 1.20E+07 and 1.17E+07 and 1.23E+07
Raw counts of Xanthine (AsPC-1 cells): 6452708 and 5994216 and 6427826
inhibition at 10 µM (Alpha1A): -3.34%
Inhibition by MBE1 at 10 μM (%) (GABAA): −5.08%
